# Like-named read-outs stand apart in the source and are kept apart here.
# Key:
# E. coli MurF = E. coli MurF (Escherichia coli, UniProt P11880); assay: MurF inhibition assay (Malachite green); format: biochemical; settings: for remaining activity at 100 µM: 0.25 h, residual activity at 100 µM compound, mean ± SD of three independent experiments, read-out: RA (%) @ 100 µM MurF; for IC50: seven compound concentrations, 4-parameter Hill fit, three independent experiments
# Protocol: (§1) Inhibition of the Mur ligases was determined using the Malachite green assay, with slight modifications. […] In all cases, the final concentration of DMSO was 5% (v/v).
# (§2) After incubation for 15 min at 37 °C, the enzyme reaction was terminated by the addition of 100 µM Biomol green reagent®, and the absorbance was measured at 650 nm after 5 min. Experiments to determine the RA run in triplicate. Residual activities were calculated with respect to control assays without the tested compounds, but with the 5% DMSO carrier. The IC50 values were determined by measuring the residual activities at seven different compound concentrations, and they represent the concentration of the compound at which the residual activity was 50%. IC50 values were obtained by plotting the residual enzyme activities against the applied inhibitor concentrations, fitting the experimental data to the 4-parameter Hill equation: Y=Bottom-Top-Bottom/1+10^logIC50-X×HillSlope , where X is the logarithm of the inhibitor concentration, and Y is the residual activity. The IC50 values were determined in three independent experiments. GraphPad Prism 8.2.0 (GraphPad Software, San Diego, CA, USA) was used for the fitting procedure.
# (§3) The assay detects the phosphate formed in each enzyme reaction. To avoid any possibility of the compounds inhibiting the enzymes due to aggregation, a detergent (0.005% Triton-X114) was added to the test system.
# E. coli MurE = E. coli MurE (Escherichia coli, UniProt P22188); assay: MurE inhibition assay (Malachite green); format: biochemical; settings: 0.25 h, read-out: RA (%) @ 100 µM MurE
# Protocol: as §1, §2, §3
# E. coli MurD = E. coli MurD (Escherichia coli, UniProt P14900); assay: MurD inhibition assay (Malachite green); format: biochemical; settings: 0.25 h, read-out: RA (%) @ 100 µM MurD
# Protocol: as §1, §2, §3
# E. coli MurC = E. coli MurC (Escherichia coli, UniProt P17952); assay: MurC inhibition assay (Malachite green); format: biochemical; settings: 0.25 h, read-out: RA (%) @ 100 µM MurC
# Protocol: as §1, §2, §3
# S. aureus (ATCC 29,213) = assay: Antibacterial assay, broth microdilution MIC; format: cell-based; settings: for MIC: Staphylococcus aureus
# Protocol: (§4) Antimicrobial testing was performed by the broth microdilution method in 96-well plates following the Clinical and Laboratory Standards Institute guidelines and European Committee on Antimicrobial Susceptibility Testing recommendations (Clinical and Laboratory Standards Institute). Bacterial suspensions equivalent to 0.5 McFarland turbidity standard were diluted with cation-adjusted Mueller–Hinton broth with TES buffering (ThermoFisher Scientific), for a final inoculum of 10^5 CFU/ mL. Compounds dissolved in DMSO and the inoculum were mixed and incubated for 20 h at 35 °C. […] The MICs were determined against two reference bacterial strains, S. aureus (ATCC 29,213) and E. coli (ATCC 25,922). Tetracycline was used as the positive control on every assay plate, with MICs of 0.5 and 1 µg/mL for S. aureus and E. coli, respectively. All MICs were determined in three independent experiments.
# E. coli (ATCC 25,922) = assay: Antibacterial assay, broth microdilution MIC; format: cell-based; settings: for MIC: Escherichia coli
# Protocol: as §4
# [1] = residual activity at 100 µM compound, mean ± SD of three independent experiments
# [2] = ATCC29, broth microdilution, 20 h at 35 °C, read-out: MIC S.aureus
# [3] = ATCC25, broth microdilution, 20 h at 35 °C, read-out: MIC E.coli
# [4] = ATCC29, 20 h, read-out: MIC S.aureus
# [5] = ATCC25, 20 h, read-out: MIC E.coli
# Sequence of E. coli MurC (P17952 whole entry): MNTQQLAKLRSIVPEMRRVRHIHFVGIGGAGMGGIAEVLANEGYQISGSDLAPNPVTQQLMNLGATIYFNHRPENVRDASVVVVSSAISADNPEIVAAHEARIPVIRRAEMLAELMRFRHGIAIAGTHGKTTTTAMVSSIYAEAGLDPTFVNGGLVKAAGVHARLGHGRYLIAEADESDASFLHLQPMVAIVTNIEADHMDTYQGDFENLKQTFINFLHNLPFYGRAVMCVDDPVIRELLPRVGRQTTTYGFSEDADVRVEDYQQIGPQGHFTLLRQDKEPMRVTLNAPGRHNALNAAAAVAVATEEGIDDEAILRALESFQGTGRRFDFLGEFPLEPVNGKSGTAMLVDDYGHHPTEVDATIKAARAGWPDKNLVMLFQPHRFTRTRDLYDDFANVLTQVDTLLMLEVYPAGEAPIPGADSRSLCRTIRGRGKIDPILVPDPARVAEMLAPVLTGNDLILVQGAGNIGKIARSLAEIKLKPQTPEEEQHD
# Sequence of E. coli MurD (P14900 whole entry): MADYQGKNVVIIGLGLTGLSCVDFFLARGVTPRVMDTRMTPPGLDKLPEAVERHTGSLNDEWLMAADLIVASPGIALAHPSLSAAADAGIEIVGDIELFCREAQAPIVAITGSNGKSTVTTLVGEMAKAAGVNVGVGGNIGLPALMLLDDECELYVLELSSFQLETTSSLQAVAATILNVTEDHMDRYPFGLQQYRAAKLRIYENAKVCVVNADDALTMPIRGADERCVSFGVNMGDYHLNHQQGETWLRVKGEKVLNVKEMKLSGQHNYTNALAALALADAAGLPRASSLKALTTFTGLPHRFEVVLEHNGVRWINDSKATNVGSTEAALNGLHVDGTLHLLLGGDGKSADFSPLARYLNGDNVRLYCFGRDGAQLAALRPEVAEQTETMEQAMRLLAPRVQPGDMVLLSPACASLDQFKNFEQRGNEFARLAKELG
# Sequence of E. coli MurF (P11880 whole entry): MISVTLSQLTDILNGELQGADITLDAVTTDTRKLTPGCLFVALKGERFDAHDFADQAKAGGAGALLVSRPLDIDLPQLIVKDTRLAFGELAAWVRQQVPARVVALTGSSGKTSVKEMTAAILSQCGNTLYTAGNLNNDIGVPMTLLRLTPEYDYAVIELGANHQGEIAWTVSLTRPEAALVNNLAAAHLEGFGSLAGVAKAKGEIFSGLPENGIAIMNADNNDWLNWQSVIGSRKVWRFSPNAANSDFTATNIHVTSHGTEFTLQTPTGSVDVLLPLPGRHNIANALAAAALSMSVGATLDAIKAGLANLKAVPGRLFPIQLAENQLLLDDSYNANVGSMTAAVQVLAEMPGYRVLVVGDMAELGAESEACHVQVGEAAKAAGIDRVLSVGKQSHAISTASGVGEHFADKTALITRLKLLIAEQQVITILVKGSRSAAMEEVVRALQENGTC
# Sequence of E. coli MurE (P22188 whole entry): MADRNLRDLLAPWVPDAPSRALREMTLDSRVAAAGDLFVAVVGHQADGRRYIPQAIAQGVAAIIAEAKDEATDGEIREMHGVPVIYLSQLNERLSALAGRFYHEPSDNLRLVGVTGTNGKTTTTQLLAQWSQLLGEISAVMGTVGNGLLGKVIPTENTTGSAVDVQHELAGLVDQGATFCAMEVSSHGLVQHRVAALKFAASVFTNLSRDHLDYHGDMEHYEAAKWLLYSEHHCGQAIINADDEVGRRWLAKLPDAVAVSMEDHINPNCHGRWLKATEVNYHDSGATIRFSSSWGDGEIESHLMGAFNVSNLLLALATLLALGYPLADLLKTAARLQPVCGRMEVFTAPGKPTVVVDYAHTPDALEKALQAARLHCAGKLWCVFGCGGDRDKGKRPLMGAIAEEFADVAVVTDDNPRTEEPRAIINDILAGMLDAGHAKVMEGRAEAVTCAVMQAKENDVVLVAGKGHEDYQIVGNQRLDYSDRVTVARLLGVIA
Structure (SMILES),remaining activity at 100 µM (E. coli MurF),remaining activity at 100 µM (E. coli MurE; [1]),remaining activity at 100 µM (E. coli MurD; [1]),remaining activity at 100 µM (E. coli MurC; [1]),"MIC (S. aureus (ATCC 29,213); [2])","MIC (E. coli (ATCC 25,922); [3])",IC50 (E. coli MurF),"Inhibition of growth of S. aureus (in words) (S. aureus (ATCC 29,213); broth microdilution)","Inhibition of growth of E. coli (in words) (E. coli (ATCC 25,922); broth microdilution)",remaining activity at 100 µM (E. coli MurE),remaining activity at 100 µM (E. coli MurD),remaining activity at 100 µM (E. coli MurC),"MIC (S. aureus (ATCC 29,213); [4])","MIC (E. coli (ATCC 25,922); [5])","MIC (S. aureus (ATCC 29,213); ATCC29, broth microdilution, 20 h at 35 °C, read-out: MIC S. aureus)","MIC (S. aureus (ATCC 29,213); ATCC29, positive control on every assay plate, read-out: MIC S. aureus, positive control)","MIC (E. coli (ATCC 25,922); ATCC25, positive control on every assay plate, read-out: MIC E. coli, positive control)"
O=C1C[C@@H](c2ccc(O)cc2)Oc2cc(O)cc(O)c21 [Compound 5],87 ± 9%,98 ± 9%,100 ± 9%,97 ± 8%,> 250 µM,> 250 µM,–,–,–,–,–,–,–,–,–,–,–
O=c1c(O[C@@H]2O[C@H](CO)[C@@H](O)[C@H](O)[C@H]2O)c(-c2ccc(O)c(O)c2)oc2cc(O)cc(O)c12 [Compound 8],88 ± 9%,97 ± 8%,100 ± 9%,95 ± 9%,> 250 µM,> 250 µM,–,–,–,–,–,–,–,–,–,–,–
"O=c1c(O)c(-c2cc(O)c(O)c(O)c2)oc2cc(O)cc(O)c12 [Compound 12, myricetin]",–,66 ± 7%,87 ± 9%,87 ± 8%,> 250 µM,> 250 µM,139 ± 13 µM,inactive,inactive,–,–,–,–,–,–,–,–
"O=c1c(O)c(-c2ccc(O)c(O)c2)oc2cc(O)cc(O)c12 [Compound 14, Quercetin]",–,–,–,–,250 µM,> 250 µM,–,inhibit the growth,–,28 ± 4%,43 ± 6%,41 ± 5%,–,–,–,–,–
COc1cc(OC)c2c(=O)cc(-c3ccc(OC)c(OC)c3)oc2c1 [Compound 19],100 ± 9%,100 ± 9%,100 ± 10%,100 ± 9%,–,–,–,–,–,–,–,–,> 250 µM,> 250 µM,–,–,–
Cc1c(O)cc(O)c2c1O[C@H](c1ccccc1)CC2=O [Compound 4],88 ± 9%,100 ± 9%,97 ± 8%,91 ± 9%,> 250 µM,> 250 µM,–,–,–,–,–,–,–,–,–,–,–
CC(C)=CCc1c(O)cc(O)c2c1O[C@H](c1ccc(O)cc1)CC2=O [Compound 3],71 ± 7%,87 ± 9%,100 ± 8%,95 ± 10%,62 µM,> 250 µM,–,inhibit the growth,–,–,–,–,–,–,–,–,–
O=c1c(O)c(-c2ccccc2)oc2cc(O)cc(O)c12 [Compound 16],100 ± 10%,100 ± 10%,91 ± 7%,100 ± 8%,250 µM,> 250 µM,–,inhibit the growth,–,–,–,–,–,–,–,–,–
O=c1cc(-c2ccccc2)oc2cc(O)cc(O)c12 [Compound 17],100 ± 8%,83 ± 8%,71 ± 9%,100 ± 10%,> 250 µM,> 250 µM,–,–,–,–,–,–,–,–,–,–,–
O=c1cc(-c2ccc(O)c(O)c2)oc2cc(OC3OC(CO)C(O)C(O)C3O)cc(O)c12 (centres unmarked) [Compound 15],92 ± 9%,100%,75 ± 6%,100 ± 9%,> 250 µM,> 250 µM,–,–,–,–,–,–,–,–,–,–,–
COc1cc(O)c(CC=C(C)C)c2c1C(=O)C[C@@H](c1ccc(O)cc1)O2 [Compound 2],78 ± 9%,77 ± 7%,100 ± 10%,86 ± 8%,250 µM,> 250 µM,–,inhibit the growth,–,–,–,–,–,–,–,–,–
"Oc1cc(O)c2c(c1)O[C@H](c1ccc(O)c(O)c1)[C@@H](O)C2 [Compound 22, (+)-catechin]",100 ± 10%,88 ± 8%,93 ± 8%,100 ± 10%,> 250 µM,> 250 µM,–,–,–,–,–,–,–,–,–,–,–
CC1OC(OCC2OC(Oc3c(-c4ccc(O)c(O)c4)oc4cc(O)cc(O)c4c3=O)C(O)C(O)C2O)C(O)C(O)C1O (centres unmarked) [Compound 7],89 ± 10%,100 ± 10%,97 ± 9%,100 ± 10%,> 250 µM,> 250 µM,–,–,–,–,–,–,–,–,–,–,–
COc1ccc([C@@H]2CC(=O)c3c(O)cc(O)cc3O2)cc1O [Compound 1],87 ± 8%,100 ± 10%,94 ± 9%,100 ± 9%,> 250 µM,> 250 µM,–,–,–,–,–,–,–,–,–,–,–
O=c1c(OC2OC(CO)C(O)C(O)C2O)c(-c2ccc(O)c(O)c2)oc2cc(O)cc(O)c12 (centres unmarked) [Compound 9],90 ± 8%,100 ± 8%,100 ± 8%,89 ± 8%,> 250 µM,> 250 µM,–,–,–,–,–,–,–,–,–,–,–
CC1OC(Oc2c(-c3cc(O)c(O)c(O)c3)oc3cc(O)cc(O)c3c2=O)C(O)C(O)C1O (centres unmarked) [Compound 11],86 ± 9%,100 ± 10%,89 ± 7%,97 ± 7%,> 250 µM,> 250 µM,–,–,–,–,–,–,–,–,–,–,–
"COc1cc(O)c(CC=C(C)C)c(O)c1C(=O)/C=C/c1ccc(O)cc1 [Compound 23, xanthohumol]",72 ± 8%,82 ± 7%,91 ± 10%,86 ± 8%,31 µM,> 250 µM,–,inhibit the growth,–,–,–,–,–,–,31 µM,–,–
"CN(C)[C@@H]1C(O)=C(C(N)=O)C(=O)[C@@]2(O)C(O)=C3C(=O)c4c(O)cccc4[C@@](C)(O)[C@H]3C[C@@H]12 [Tetracycline, reference compound]",–,–,–,–,–,–,–,–,–,–,–,–,–,–,–,0.5 µg/mL,1 µg/mL
"COc1cc([C@@H]2[C@H]3CO[C@@]4(O)C(=O)[C@@H]2C=C([C@H]2Oc5cc(O)cc(O)c5C(=O)[C@@H]2O)[C@@H]34)ccc1O [Compound 24, silydianin]",99 ± 7%,93 ± 9%,95 ± 9%,100 ± 7%,> 250 µM,> 250 µM,–,–,–,–,–,–,–,–,–,–,–
"C[C@@H]1O[C@@H](Oc2c(-c3ccc(O)c(O)c3)oc3cc(O)cc(O)c3c2=O)[C@H](O)[C@H](O)[C@H]1O [Compound 10, quercitrin]",–,98 ± 9%,77 ± 9%,98 ± 10%,–,–,143 ± 18 µM,inactive,inactive,–,–,–,> 250 µM,> 250 µM,–,–,–
COc1cc(O)c2c(=O)c(O)c(-c3ccc(O)c(O)c3)oc2c1 [Compound 13],51 ± 6%,82 ± 8%,71 ± 8%,66 ± 7%,> 250 µM,> 250 µM,–,–,–,–,–,–,–,–,–,–,–
